Tests used:
[1] = Stability test: UV-visible spectrum change over time in aqueous solution; assay type: physicochemical
Procedure: Specifically, the UV-visible spectrum of an aqueous solution of 1 mg of each osmium complex, ruthenium hexamine, and Ferricyanide dissolved in 1 mL of 0.1 M PBS (pH 7.4) was measured and stored at room temperature for 11 days.

[2] = Text: In subsequent examples, an osmium complex sodium salt was used by substituting the osmium complex with NaOH at 1:3 equivalent ratios.
[3] = tested on: FAD-glucose dehydrogenase (FAD-GDH); assay type: biochemical; settings: pH 7.4
Procedure: To verify the electrochemical properties of osmium complex, cyclic voltammetry was performed. Using a carbon electrode as the working electrode, platinum as the auxiliary electrode, and an Ag/AgCl (sat. KCl) electrode as a reference electrode, the current was measured by changing the glucose concentration in a mixed solution including FAD-glucose dehydrogenase (FAD-GDH) 10 mg/mL, osmium complex 30 mmol and 0.1 M PBS (pH 7.4).

Molecule | UV-visible spectrum change over time ([1]; 1 mg in 1 mL 0.1 M PBS (pH 7.4), room temperature, 11 days) | solubility in water [2] | response slope [3] | UV-visible spectrum change over time ([1]; pH 7.4)
N.N.N.N.N.N.[Cl-].[Cl-].[Cl-].[Ru+3] [ruthenium hexamine, Hexamine ruthenium chloride [Ru(NH3)6Cl3], reference compound] | no change in the UV-visible spectrum was observed over time | – | – | –
Os(dcbpy)2Cl2 [osmium complex] | – | low solubility in water | 77.1 nA/(mg/dL) | the absorbance of absorption peaks at 400 nm and 520 mm decreased with time

— patent US10890557B2, “Electrochemical biosensor” (I-SENS, INC., priority 2014, dated 2021)
